From patent publication US5268374A, “Non-peptide renin inhibitors” (Abbott Laboratories, priority 1991, dated 1993)

Key:
human renal renin = target: T1, human renal renin (Homo sapiens, UniProt P00797); test: Inhibition of human renal renin in vitro (angiotensin I formation by radioimmunoassay); type: biochemical; conditions: human renal renin, 37 degrees C, pH 6.0; read-out: IC50
T1 construct: from tissue; host or cells: human kidney (read from the word 'renal'; no preparation is printed)
T1 sequence (P00797 67-406): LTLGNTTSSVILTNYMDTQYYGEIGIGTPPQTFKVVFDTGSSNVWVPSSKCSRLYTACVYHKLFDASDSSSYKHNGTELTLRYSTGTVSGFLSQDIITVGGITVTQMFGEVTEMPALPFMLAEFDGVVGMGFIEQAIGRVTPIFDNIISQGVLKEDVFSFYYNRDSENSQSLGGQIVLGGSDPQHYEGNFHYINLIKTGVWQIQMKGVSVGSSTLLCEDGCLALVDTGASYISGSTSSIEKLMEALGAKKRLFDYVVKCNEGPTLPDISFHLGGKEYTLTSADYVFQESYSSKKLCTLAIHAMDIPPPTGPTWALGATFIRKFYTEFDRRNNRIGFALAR

[1] = Blood pressure in salt-depleted monkeys after oral dosing; type: in vivo, cynomolgous monkeys; conditions: 3 mg/kg oral
Source text: (§1) The ability of the compounds of the invention to decrease blood pressure and plasma renin activity in vivo can be determined using the following method.
(§2) Male cynomolgous monkeys housed under constant temperature and lighting conditions and weighing 3-5 kg were instrumented with chronic indwelling arterial and venous catheters.

plasma renin = test: Plasma renin activity (PRA) in salt-depleted monkeys after oral dosing; type: in vivo, cynomolgous monkeys; conditions: 3 mg/kg oral
Source text: as §1, §2

[2] = Mean of two monkeys, time 0 min

In the case of `CCCC[C@H](O[C@@H](Cc1ccccc1)C(=O)N1CCC(OCOC)CC1)C(=O)N[C@@H](CC1CCCCC1)[C@@H](O)C[C@H](C(=O)NCCCN1CCOCC1)C(C)C` [Example 118, 2(S)-(1(S)-(4-(Methoxymethoxy)piperidin-1-yl)carbonyl-2-phenyl)ethoxyhexanoic acid amide of 3-(4-morpholinyl)propyl 5(S)-amino-6-cyclohexyl-4(S)-hydroxy-2(S)-isopropylhexanamide], the IC50 (human renal renin) is reported as 0.84 nM, the “Blood pressure (BP)” value ([1]; Mean of two monkeys, 5 min) is reported as 117 mmHg and the “Blood pressure (BP)” value ([1]; Mean of two monkeys, 15 min) is reported as 111 mmHg. The “Blood pressure (BP)” value ([1]; Mean of two monkeys, 30 min) was 112 mmHg, the “Blood pressure (BP)” value ([1]; Mean of two monkeys, 45 min) was 104 mmHg and the “Blood pressure (BP)” value ([1]; Mean of two monkeys, 60 min) was 109 mmHg. For the same compound, the “Blood pressure (BP)” value ([1]; Mean of two monkeys, 90 min) was 98 mmHg, the “Blood pressure (BP)” value ([1]; Mean of two monkeys, 120 min) was 94 mmHg and the “Blood pressure (BP)” value ([1]; Mean of two monkeys, 180 min) was 94 mmHg. For the same compound, the “Blood pressure (BP)” value ([1]; Mean of two monkeys, 360 min) was 99 mmHg, the “Blood pressure (BP)” value [1, 2] was 114 mmHg and the “Blood pressure (BP)” value ([1]; Monkey 1, 5 min) was 112 mmHg. The “Blood pressure (BP)” value ([1]; Monkey 1, 15 min) was 105 mmHg, the “Blood pressure (BP)” value ([1]; Monkey 1, 30 min) was 113 mmHg and the “Blood pressure (BP)” value ([1]; Monkey 1, 45 min) was 95 mmHg. For the same compound, the “Blood pressure (BP)” value ([1]; Monkey 1, 60 min) was 102 mmHg, the “Blood pressure (BP)” value ([1]; Monkey 1, 90 min) was 90 mmHg and the “Blood pressure (BP)” value ([1]; Monkey 1, 120 min) was 84 mmHg. The “Blood pressure (BP)” value ([1]; Monkey 1, 180 min) was 84 mmHg, the “Blood pressure (BP)” value ([1]; Monkey 1, 360 min) was 94 mmHg and the “Blood pressure (BP)” value ([1]; Monkey 1, time 0 min) was 107 mmHg. For the same compound, the “Blood pressure (BP)” value ([1]; Monkey 2, 5 min) was 121 mmHg, the “Blood pressure (BP)” value ([1]; Monkey 2, 15 min) was 117 mmHg and the “Blood pressure (BP)” value ([1]; Monkey 2, 30 min) was 110 mmHg. For the same compound, the “Blood pressure (BP)” value ([1]; Monkey 2, 45 min) was 112 mmHg, the “Blood pressure (BP)” value ([1]; Monkey 2, 60 min) was 115 mmHg and the “Blood pressure (BP)” value ([1]; Monkey 2, 90 min) was 106 mmHg. The “Blood pressure (BP)” value ([1]; Monkey 2, 120 min) was 103 mmHg, the “Blood pressure (BP)” value ([1]; Monkey 2, 180 min) was 103 mmHg and the “Blood pressure (BP)” value ([1]; Monkey 2, 360 min) was 103 mmHg. The “Blood pressure (BP)” value ([1]; Monkey 2, time 0 min) was 120 mmHg, the “Plasma Renin Activity (PRA)” value (plasma renin; Mean of two monkeys, 5 min) was 9.7 ng/mL/h and the “Plasma Renin Activity (PRA)” value (plasma renin; Mean of two monkeys, 15 min) was 1.5 ng/mL/h. For the same compound, the “Plasma Renin Activity (PRA)” value (plasma renin; Mean of two monkeys, 30 min) was 0.4 ng/mL/h, the “Plasma Renin Activity (PRA)” value (plasma renin; Mean of two monkeys, 45 min) was 0.2 ng/mL/h and the “Plasma Renin Activity (PRA)” value (plasma renin; Mean of two monkeys, 60 min) was 0.2 ng/mL/h. The “Plasma Renin Activity (PRA)” value (plasma renin; Mean of two monkeys, 90 min) was 0.0 ng/mL/h, the “Plasma Renin Activity (PRA)” value (plasma renin; Mean of two monkeys, 120 min) was 0.3 ng/mL/h and the “Plasma Renin Activity (PRA)” value (plasma renin; Mean of two monkeys, 180 min) was 0.3 ng/mL/h. For the same compound, the “Plasma Renin Activity (PRA)” value (plasma renin; Mean of two monkeys, 360 min) was 0.2 ng/mL/h, the “Plasma Renin Activity (PRA)” value (plasma renin; [2]) was 23.9 ng/mL/h and the “Plasma Renin Activity (PRA)” value (plasma renin; Monkey 1, 5 min) was 5.8 ng/mL/h. For the same compound, the “Plasma Renin Activity (PRA)” value (plasma renin; Monkey 1, 15 min) was 0.1 ng/mL/h, the “Plasma Renin Activity (PRA)” value (plasma renin; Monkey 1, 30 min) was 0.4 ng/mL/h and the “Plasma Renin Activity (PRA)” value (plasma renin; Monkey 1, 45 min) was 0.0 ng/mL/h. The “Plasma Renin Activity (PRA)” value (plasma renin; Monkey 1, 60 min) was 0.0 ng/mL/h, the “Plasma Renin Activity (PRA)” value (plasma renin; Monkey 1, 90 min) was 0.0 ng/mL/h and the “Plasma Renin Activity (PRA)” value (plasma renin; Monkey 1, 120 min) was 0.2 ng/mL/h. For the same compound, the “Plasma Renin Activity (PRA)” value (plasma renin; Monkey 1, 180 min) was 0.2 ng/mL/h, the “Plasma Renin Activity (PRA)” value (plasma renin; Monkey 1, 360 min) was 0.0 ng/mL/h and the “Plasma Renin Activity (PRA)” value (plasma renin; Monkey 1, time 0 min) was 29.1 ng/mL/h. The “Plasma Renin Activity (PRA)” value (plasma renin; Monkey 2, 5 min) was 13.5 ng/mL/h, the “Plasma Renin Activity (PRA)” value (plasma renin; Monkey 2, 15 min) was 2.9 ng/mL/h and the “Plasma Renin Activity (PRA)” value (plasma renin; Monkey 2, 30 min) was 0.4 ng/mL/h. For the same compound, the “Plasma Renin Activity (PRA)” value (plasma renin; Monkey 2, 45 min) was 0.3 ng/mL/h, the “Plasma Renin Activity (PRA)” value (plasma renin; Monkey 2, 60 min) was 0.3 ng/mL/h and the “Plasma Renin Activity (PRA)” value (plasma renin; Monkey 2, 90 min) was 0.0 ng/mL/h. The “Plasma Renin Activity (PRA)” value (plasma renin; Monkey 2, 120 min) was 0.4 ng/mL/h, the “Plasma Renin Activity (PRA)” value (plasma renin; Monkey 2, 180 min) was 0.4 ng/mL/h and the “Plasma Renin Activity (PRA)” value (plasma renin; Monkey 2, 360 min) was 0.3 ng/mL/h. For the same compound, the “Plasma Renin Activity (PRA)” value (plasma renin; Monkey 2, time 0 min) was 18.7 ng/mL/h.
